Results published in ChEMBL document CHEMBL1201862, “PubChem BioAssay data set” (2004).
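Each compound was tested at five concentrations against cells in 96-well plates for 48 hours. GI50: concentration for 50% inhibition of growth.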 Active and inactive are the calls of the source. No stated cut-off is given here; in the data, active = GI50 up to about 1.1 µM and inactive = higher.

What was measured:
Assay in all cases: NCI tumour cell line growth inhibition, 48 h
ACHN = test system: ACHN
EKVX = test system: EKVX
UACC-257 = test system: UACC-257
SNB-75 = test system: SNB-75
HCT-116 = test system: HCT-116
A498 = test system: A498
HOP-18 = test system: HOP-18
SK-MEL-5 = test system: SK-MEL-5
MDA-MB-435 = test system: MDA-MB-435
IGROV-1 = test system: IGROV-1
NCI/ADR-RES = test system: NCI/ADR-RES
MOLT-4 = test system: MOLT-4
NCI-H226 = test system: NCI-H226
MCF7 = test system: MCF7
HCC 2998 = test system: HCC 2998
SF-268 = test system: SF-268
BT-549 = test system: BT-549
UO-31 = test system: UO-31
OVCAR-3 = test system: OVCAR-3
PC-3 = test system: PC-3

Measured: GI50

C=C1C(=O)OC2C1CCC(C)C1C=CC(=O)C12C (stereo not drawn)
inactive: ACHN 1.73 µM | EKVX 8.79 µM | UACC-257 1.97 µM | SNB-75 8.15 µM | HCT-116 1.74 µM | A498 12.1 µM | HOP-18 6.65 µM | SK-MEL-5 3.33 µM | MDA-MB-435 1.73 µM | IGROV-1 6.14 µM | NCI/ADR-RES 1.41 µM | MOLT-4 2.46 µM | NCI-H226 3.75 µM | MCF7 3.92 µM | HCC 2998 12 µM | SF-268 8.61 µM | BT-549 1.63 µM | UO-31 4.75 µM | OVCAR-3 1.22 µM | PC-3 4.49 µM

CN1CCN(c2ccc3[nH]c(-c4ccc5[nH]c(-c6ccc(O)cc6)nc5c4)nc3c2)CC1
inactive: ACHN 281 µM | UACC-257 52.1 µM | SNB-75 353 µM | HCT-116 13.5 µM | A498 241 µM | HOP-18 209 µM | SK-MEL-5 11.8 µM | MDA-MB-435 8.28 µM | IGROV-1 117 µM | NCI/ADR-RES 482 µM | MOLT-4 29.1 µM | NCI-H226 170 µM | MCF7 4.98 µM | HCC 2998 151 µM | SF-268 70.8 µM | BT-549 455 µM | UO-31 564 µM | PC-3 687 µM
